Results taken from patent US20130171163A1, “Inhibition of LAR Phosphatase to Enhance Therapeutic Angiogenesis” (priority 2010, published 2013).

How the values were obtained:
Akt, eNOS and ERK1/2 = test: IGF-1-induced phosphorylation of Akt, eNOS and ERK1/2 in HUVECs (Western); format: cell-based, human; conditions: 100 ng/mL IGF-1, AdLAR at 2.5 MOI
Procedure: (§1) Human umbilical vein endothelial cells (HUVECs) were purchased from Cambrex (San Diego, Calif.) and were maintained in medium 199 (Mediatech, Inc, Herndon, Va.) containing 90 μg/ml heparin, 30 μg/ml endothelial cell growth supplements (BD Biosciences, Bedford, Mass.), 20% FBS, 50 μg/mL gentamicin, and 50 μg/mL amphotericin. Cultures were maintained at 37° C. in a humidified incubator (95% air, 5% CO2). HUVECs, grown to 80% confluence, were growth arrested by overnight incubation in medium 199 supplemented with 0.1% serum.
(§2) Preparation of cell lysates, immunoprecipitation and immunoblotting were performed as described (Reinmuth et al., Clin. Cancer Res. 8:3259 (2002)).
(§3) Adenoviral infection of nearly confluent HUVECs was performed with indicated multiplicity of infection in medium 199 containing 2% FBS. After 16 h incubation, the cells were quiesced overnight in medium 199 containing 0.1% FBS. Then HUVECs were treated with the indicated agonists in serum-free medium 199.
(§4) The LAR siRNA (sc-35793, containing three siRNAs (SEQ ID NOS:1-3)) and a scrambled, non-silencing siRNA (sc-36869) were obtained from Santa Cruz Biotechnology. […] HUVECs were treated with the indicated agonists in serum-free medium 199 and LAR expression was assessed by Western analysis.

[1] = system: aortic rings from wild-type and LAR−/− mice; test: Ex vivo angiogenesis assay (aortic ring sprouting); design: species or system mouse
Procedure: The angiogenesis assay was performed as described previously (Huang et al., J. Biol. Chem. 277:10760 (2002)) with some modifications. Thoracic aortas were excised from 8-12-week-old wild-type and LAR knockout male mice (DBA background) and immediately placed into cold medium 199 containing 10% FBS. Clotted blood inside the aortas was flushed with media, and the periadventitial fibroadipose tissue was removed. Aortas were then cut into cross-sectional rings of ˜1-1.5 mm in length. Rings were placed into 60-mm dishes containing 0.4 ml of cold growth factor-reduced Matrigel and then incubated at 37° C. until the Matrigel was polymerized. The aortic rings embedded in the Matrigel were overlaid with 0.5 ml of serum-free endothelial cell growth medium with or without the growth factors. The rings were maintained at 37° C. for up to 10 days with medium changes every 2 days. Vascular sprouting from the rings was examined daily under a Leica microscope (10× magnification), and digital images were obtained. Quantitative analysis of endothelial sprouting was performed using images from day 10, and sprout length was quantified using NIH Image J. The distance from the aortic ring body to the end of the vascular sprouts was measured at three distinct points per ring.

[2] = system: wild-type and LAR−/− mice; test: In vivo angiogenesis assay (Matrigel plug); design: species or system mouse; conditions: in the presence of PPP
From the text: The Matrigel plug assay was used to assess in vivo angiogenesis. […] Mice were sacrificed after 10 days and the plugs were carefully dissected from the mice. The plugs were weighed, analyzed histologically or for hemoglobin content using Drabkin hemoglobin assay kit (Sigma Chemical Co., St. Louis, Mo.). Hemoglobin levels in the Matrigel plugs correlate well with blood vessel growth (Volin et al., Am. J. Pathol. 159:1521 (2001)). The Matrigel plugs were homogenized on ice and centrifuged. Fifty μl of the supernatant were mixed with 950 μl Drabkin's reagent and the reaction was allowed to develop at room temperature for 30 min. Absorbance was read at 540 nm and hemoglobin concentration was determined by comparison to a standard curve generated using known concentrations of hemoglobin. For histological analysis, Matrigel plugs were formalin-fixed, paraffin-embedded, cut into 5 μm sections, and Massons trichrome-stained. In brief, sections were hydrated in distilled water, incubated in Bouin's fixative for 3 h to overnight, and then washed in running tap water until yellow color disappeared. […] Image J was used to quantify the number of vessel-like structures in each field. Total number of microvessels containing red blood cells and number of capillaries in a high power field (20× magnifications) were counted. […]

HUVECs = test: Matrigel morphogenesis assay (endothelial tube/cord formation); format: cell-based, human; conditions: 1 μM PPP
Procedure: Growth factor-reduced Matrigel was thawed at 4° C. on ice and 300 μl/well were added to a 24-well plate prechilled at −20° C. using a cold pipette. Matrigel was allowed to polymerize for 30 min at 37° C. HUVECs were either left uninfected or were infected with AdLAR or Adβ-gal. In a separate set of experiments, HUVECs were transfected with LAR siRNA or control siRNA as described above. […] In vitro tube formation was assessed after 5 h incubation. Cell cultures were observed under a phase contrast microscope and photographed in five different random fields (10× magnification). The mean tube length per field was quantified using NIH Image J.

IGF-1Rβ = biological target: T1, IGF-1Rβ (Homo sapiens, UniProt P08069); test: IGF-1-induced IGF-1Rβ autophosphorylation in HUVECs (immunoprecipitation/Western); format: cell-based
T1 construct: endogenous in cells; host or cells: HUVEC (Cambrex)
T1 sequence (P08069 31-1367): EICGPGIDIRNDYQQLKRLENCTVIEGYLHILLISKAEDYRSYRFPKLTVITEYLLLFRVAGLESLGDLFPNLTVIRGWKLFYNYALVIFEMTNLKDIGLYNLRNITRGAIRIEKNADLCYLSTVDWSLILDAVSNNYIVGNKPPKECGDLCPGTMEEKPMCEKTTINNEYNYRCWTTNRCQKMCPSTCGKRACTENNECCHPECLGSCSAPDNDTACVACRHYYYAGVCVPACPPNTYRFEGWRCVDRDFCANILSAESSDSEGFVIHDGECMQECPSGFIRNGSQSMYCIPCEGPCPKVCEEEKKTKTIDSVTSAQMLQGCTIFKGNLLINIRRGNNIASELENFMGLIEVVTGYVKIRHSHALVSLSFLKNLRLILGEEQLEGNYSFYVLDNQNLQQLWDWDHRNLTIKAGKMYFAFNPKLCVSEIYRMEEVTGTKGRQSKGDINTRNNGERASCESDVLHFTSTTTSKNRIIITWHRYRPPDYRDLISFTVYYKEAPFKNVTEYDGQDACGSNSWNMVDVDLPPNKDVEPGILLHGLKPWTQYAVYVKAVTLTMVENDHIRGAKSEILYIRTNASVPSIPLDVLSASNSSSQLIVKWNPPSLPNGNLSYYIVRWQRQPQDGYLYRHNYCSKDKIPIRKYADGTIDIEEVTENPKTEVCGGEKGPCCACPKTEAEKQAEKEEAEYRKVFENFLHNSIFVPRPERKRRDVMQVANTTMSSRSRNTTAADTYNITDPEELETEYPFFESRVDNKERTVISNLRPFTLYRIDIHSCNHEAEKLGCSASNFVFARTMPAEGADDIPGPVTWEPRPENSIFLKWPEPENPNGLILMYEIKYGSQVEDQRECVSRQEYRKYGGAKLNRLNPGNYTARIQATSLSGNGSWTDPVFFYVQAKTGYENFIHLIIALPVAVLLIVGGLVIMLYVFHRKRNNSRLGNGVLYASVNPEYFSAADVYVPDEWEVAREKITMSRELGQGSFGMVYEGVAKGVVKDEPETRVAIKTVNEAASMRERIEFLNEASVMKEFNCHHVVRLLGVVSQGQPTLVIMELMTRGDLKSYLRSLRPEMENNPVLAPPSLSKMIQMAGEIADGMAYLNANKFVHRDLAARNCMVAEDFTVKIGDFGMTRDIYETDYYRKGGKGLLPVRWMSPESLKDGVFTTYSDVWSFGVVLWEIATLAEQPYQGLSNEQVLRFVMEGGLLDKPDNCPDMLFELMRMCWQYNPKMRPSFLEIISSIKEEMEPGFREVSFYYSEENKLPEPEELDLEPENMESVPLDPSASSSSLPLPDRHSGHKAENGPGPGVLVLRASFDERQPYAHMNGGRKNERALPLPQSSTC
Procedure: as §1, §2, §3, §4

Compound	IGF-1-induced phosphorylation of Akt, eNOS and ERK1/2 (Akt, eNOS and ERK1/2)	Mean length of newly sprouted vessels from aortic rings ([1]; wild-type and LAR−/− mice, IGF-1 treatment, day 10)	Number of microvessels in IGF-1 embedded Matrigel plugs ([2]; LAR−/− mice)	Hemoglobin content of IGF-1 embedded Matrigel plugs ([2]; 10 days, significant in LAR−/− mice (P=0.01))	IGF-1-induced cord formation in scrambled siRNA and LAR siRNA transfected HUVECs (HUVECs)	Mean length of sprouts from IGF-1 treated wild-type and LAR−/− aortic rings ([1]; 1 μM PPP, 10 days in Matrigel)	IGF-1Rβ autophosphorylation in HUVECs treated with IGF-1 (IGF-1Rβ; 1 μM PPP)	IGF-1Rβ autophosphorylation in HUVECs treated with IGF-1, dose dependence (IGF-1Rβ; PPP pretreatment 1 h, 100 ng/mL IGF-1 10 min)
IGF-1: Recombinant human IGF-1 purchased from R&D Systems	increased	significantly enhanced	–	–	–	–	–	–
COc1cc([C@@H]2c3cc4c(cc3[C@H](O)[C@H]3COC(=O)[C@@H]23)OCO4)cc(OC)c1OC [PPP, picropodophyllin]	–	–	significantly decreased	decreased in both wild-type and LAR^−/− mice	abrogated	significantly inhibited	significant inhibition	dose-dependent inhibition
